Results on 9 compounds are retold here after patent US20240376097A1, “BCL-2 Inhibitor” (BeiGene Ltd., priority 2020, published 2024).

Assay [1] deals with RS4;11 (BCL-2 dependent acute lymphoblastic leukemia cell line). Briefly: RS4;11 Cell Proliferation Assay. In kind it is cell-based. The note with it: Homo sapiens, RS4-11, RS4;11 cells, read-out: Cellular proliferation assay (IC50, nM) RS4. An outline of the steps:
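Viability measured via CellTiter-Glo luminescence after a 48 h, 37 °C exposure to compounds (10 points, highest 1 μM). Seeding was 50,000 RS4;11 cells per well in 10% FBS RPMI-1640; IC50 given as mean.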

Assay [2] deals with Recombinant human Bcl-2 protein (Homo sapiens (Human), UniProt P10415). The experiment in a line: Bcl-2 TR-FRET Assay. In kind it is binding. The essentials: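 In pH 7.5 phosphate buffer containing NaCl, EDTA, Tween-20 and BSA, 0.05 nM Bcl-2 saw serially diluted compound for 0.5 h before 0.5 nM FITC-Bak peptide was added. Signal ratio at 520/490 nm after 1 h yielded IC50.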
Assay [3] has as its system BCL-2 G101V knock-in cell line H96 (derive from RS4;11). Briefly: Bcl 2-G101V Knock-In RS4;11 Cell Proliferation Assay. As to conditions: Homo sapiens, RS4;11 Bcl-2 G101V knock-in clone H96, 48 hrs, CellTiter-GLO, read-out: Cellular proliferation assay (IC50, nM) RS4. In kind it is cell-based. The essentials:
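CellTiter-Glo luminescence after 48 h, 37 °C compound treatment (10 concentrations, maximum 1 μM or 10 μM) gave mean IC50 values. Cells were 50,000 per well of H96, a BCL2-G101V knock-in single clone derived from RS4;11 by Cas9 editing.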
Background: ATP-based viability assays read luminescence as a measure of living cells.

The target in assay [4] is recombinant human Bcl-2 D103Y protein (Homo sapiens (Human), UniProt P10415, D103Y). Briefly: Bcl-2-D103Y Biochemical Assay (TR-FRET). The assay is classed as binding. The note with it: for pIC50: TR-FRET, FITC labeled Bak peptide; for Ratio of Bcl-2 D103Y/Bcl-2 WT: ratio of IC50. The essentials: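 Compounds titrated against the Bcl-2 D103Y–ligand interaction; inhibition derived from the TR-FRET emission ratio 490 nm/520 nm after 337 nm excitation. Four-parameter logistic fitting gave IC50.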

Assay [5] addresses recombinant human Bcl-2-G101V protein (Homo sapiens (Human), UniProt P10415, G101V). The experiment in a line: Bcl-2-G101V TR-FRET Assay. The assay is classed as binding. As to conditions: Bcl-2 G101V mutant, TR-FRET; read-out: Biochemical assay (IC50, nM) Bcl-2 G101V. An outline of the steps:
(§1)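 IC50 values derive from four-parameter logistic fitting of percent inhibition data. That inhibition of ligand binding to Bcl-2-G101V is computed from the 490 nm/520 nm TR-FRET ratio under 337 nm excitation, over a rising compound concentration series.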
On the technique in general: TR-FRET usually uses a lanthanide donor and a delayed reading to cut background.

Assay [6] deals with recombinant human Bcl-2-G101V protein. The experiment in a line: Bcl-2-G101V TR-FRET Assay. The assay is classed as binding. The note with it: ratio of biochemical IC50 Bcl-2 G101V / Bcl-2 WT. An outline of the steps: as §1
Where [7] appears, read: Bcl-2 wild type, TR-FRET, read-out: Biochemical assay (IC50, nM) Bcl-2 WT.
Setting [8] is: wild type Bcl-2, unit inferred, read-out: Bcl-2 WT.

The term pIC50 denotes the negative decadic logarithm of the IC50, by convention in mol/L.

Structures are written as SMILES. pIC50: −log10 of the molar value. Read-outs that look alike come from different tables or passages of the source.

`CC(C)c1ccccc1C1CN(Cc2cccc3c2OCCCO3)CCN1C1CC2(CCN(c3ccc(C(=O)NS(=O)(=O)c4ccc(NC[C@H]5CC[C@](C)(O)CC5)c([N+](=O)[O-])c4)c(Oc4cnc5[nH]ccc5c4)c3)CC2)C1` (stereo partly drawn) [Example 107, 2-((1H-pyrrolo[2,3-b]pyridin-5-yl)oxy)-4-(2-(4-((3,4-dihydro-2H-benzo[b][1,4]dioxepin-6-yl)methyl)-2-(2-isopropylphenyl)piperazin-1-yl)-7-azaspiro[3.5]nonan-7-yl)-N-((4-((((1r,4r)-4-hydroxy-4-methylcyclohexyl)methyl)amino)-3-nitrophenyl)sulfonyl)benzamide]: the IC50 is 0.33 nM in assay [1]; 0.11 nM in assay [2] (setting [7]); 0.11 nM in assay [2] (setting [8]); 1.77 nM in assay [3]; 0.56 nM in assay [5]. The pIC50 in assay [4] is 9.51. Moreover, the “Ratio of Bcl-2 D103Y/Bcl-2 WT” value in assay [4] was determined as 2.8. Also, the “Ratio of Bcl-2 G101V/WT” value in assay [6] is given as 5.1.
Take `CC(C)c1ccccc1C1CN(Cc2ccc(N(C)C)cc2)CCN1C1CC2(CCN(c3ccc(C(=O)NS(=O)(=O)c4ccc(NC[C@H]5CC[C@](C)(O)CC5)c([N+](=O)[O-])c4)c(Oc4cnc5[nH]ccc5c4)c3)CC2)C1` (stereo partly drawn) [Example 114, 2-((1H-pyrrolo[2,3-b]pyridin-5-yl)oxy)-4-(2-(4-(4-(dimethylamino)benzyl)-2-(2-isopropylphenyl)piperazin-1-yl)-7-azaspiro[3.5]nonan-7-yl)-N-((4-((((1r,4r)-4-hydroxy-4-methylcyclohexyl)methyl)amino)-3-nitrophenyl)sulfonyl)benzamide]: the IC50 is 0.6 nM in assay [1]; 0.12 nM in assay [2] (setting [7]); 0.12 nM in assay [2] (setting [8]); 3.65 nM in assay [3]; 0.83 nM in assay [5]. In addition, the negative-log IC50 (pIC50) in assay [4] was 9.40. In addition, in assay [4], the “Ratio of Bcl-2 D103Y/Bcl-2 WT” value is listed as 3.4. The “Ratio of Bcl-2 G101V/WT” value in assay [6] is given as 6.9.
With `CC(C)c1ccccc1C1CN(Cc2cccc3c2OCO3)CCN1C1CC2(CCN(c3ccc(C(=O)NS(=O)(=O)c4ccc(NC[C@H]5CC[C@](C)(O)CC5)c([N+](=O)[O-])c4)c(Oc4cnc5[nH]ccc5c4)c3)CC2)C1` (stereo partly drawn) [Example 115, 2-((1H-pyrrolo[2,3-b]pyridin-5-yl)oxy)-4-(2-(4-(benzo[d][1,3]dioxol-4-ylmethyl)-2-(2-isopropylphenyl)piperazin-1-yl)-7-azaspiro[3.5]nonan-7-yl)-N-((4-((((1r,4r)-4-hydroxy-4-methylcyclohexyl)methyl)amino)-3-nitrophenyl)sulfonyl)benzamide], the IC50 in assay [1] came out at 0.42 nM; in assay [2] (setting [7]), 0.097 nM; in assay [2] (setting [8]), 0.097 nM; in assay [3], 2.3 nM; in assay [5], 0.37 nM. Moreover, the pIC50 in assay [4] is 9.24. Further, the “Ratio of Bcl-2 D103Y/Bcl-2 WT” value in assay [4] came out at 5.9. Moreover, in assay [6], the “Ratio of Bcl-2 G101V/WT” value worked out at 3.8.
Turning to `COc1cc(CN2CCN(C3CC4(CCN(c5ccc(C(=O)NS(=O)(=O)c6ccc(NC[C@H]7CC[C@](C)(O)CC7)c([N+](=O)[O-])c6)c(Oc6cnc7[nH]ccc7c6)c5)CC4)C3)C(c3ccccc3C(C)C)C2)ccc1F` (stereo partly drawn) [Example 121, 2-((1H-pyrrolo[2,3-b]pyridin-5-yl)oxy)-4-(2-(4-(4-fluoro-3-methoxybenzyl)-2-(2-isopropylphenyl)piperazin-1-yl)-7-azaspiro[3.5]nonan-7-yl)-N-((4-((((1r,4r)-4-hydroxy-4-methylcyclohexyl)methyl)amino)-3-nitrophenyl)sulfonyl)benzamide], the IC50 in assay [1] was determined as 0.24 nM; in assay [2] (setting [7]), 0.28 nM; in assay [2] (setting [8]), 0.28 nM; in assay [3] it was 1.13 nM; in assay [5], 1.1 nM. Besides, the pIC50 in assay [4] is 9.38. Further, the “Ratio of Bcl-2 D103Y/Bcl-2 WT” value in assay [4] worked out at 1.5. Further, the “Ratio of Bcl-2 G101V/WT” value in assay [6] worked out at 3.8.
On to `CC(C)c1ccccc1C1CN(Cc2ccc3c(c2)OCO3)CCN1C1CC2(CCN(c3ccc(C(=O)NS(=O)(=O)c4ccc(NC[C@H]5CC[C@](C)(O)CC5)c([N+](=O)[O-])c4)c(Oc4cnc5[nH]ccc5c4)c3)CC2)C1` (stereo partly drawn) [Example 122, 2-((1H-pyrrolo[2,3-b]pyridin-5-yl)oxy)-4-(2-(4-(benzo[d][1.3]dioxol-5-ylmethyl)-2-(2-isopropylphenyl)piperazin-1-yl)-7-azaspiro[3.5]nonan-7-yl)-N-((4-((((1r,4r)-4-hydroxy-4-methylcyclohexyl)methyl)amino)-3-nitrophenyl)sulfonyl)benzamide], for which the IC50 in assay [1] came to 0.3 nM; in assay [2] (setting [7]) it was 0.19 nM; in assay [2] (setting [8]), 0.19 nM; in assay [3], 2.2 nM; in assay [5] it was 0.92 nM. Besides, the pIC50 in assay [4] was 9.33. Moreover, in assay [4], the “Ratio of Bcl-2 D103Y/Bcl-2 WT” value is listed as 2.5. Also, in assay [6], the “Ratio of Bcl-2 G101V/WT” value stood at 5.
Consider `COc1ccc(CN2CCN(C3CC4(CCN(c5ccc(C(=O)NS(=O)(=O)c6ccc(NC[C@H]7CC[C@](C)(O)CC7)c([N+](=O)[O-])c6)c(Oc6cnc7[nH]cc(Cl)c7c6)c5)CC4)C3)[C@H](c3ccccc3C(C)C)C2)cc1` [Example 123, 2-((3-chloro-1H-pyrrolo[2,3-b]pyridin-5-yl)oxy)-N-((4-((((1r,4r)-4-hydroxy-4-methylcyclohexyl)methyl)amino)-3-nitrophenyl)sulfonyl)-4-(2-((R)-2-(2-isopropylphenyl)-4-(4-methoxybenzyl)piperazin-1-yl)-7-azaspiro[3.5]nonan-7-yl) benzamide], for which the IC50 in assay [1] is 0.25 nM; in assay [2] (setting [7]) it was 0.54 nM; in assay [2] (setting [8]) it was 0.54 nM; in assay [3], 1.1 nM; in assay [5], 1.8 nM. In addition, the pIC50 in assay [4] was 9.15. The “Ratio of Bcl-2 D103Y/Bcl-2 WT” value in assay [4] turned out to be 1.3. For the same compound, the “Ratio of Bcl-2 G101V/WT” value in assay [6] worked out at 3.3.
Regarding `CCOc1cc(CN2CCN(C3CC4(CCN(c5ccc(C(=O)NS(=O)(=O)c6ccc(NC[C@H]7CC[C@](C)(O)CC7)c([N+](=O)[O-])c6)c(Oc6cnc7[nH]ccc7c6)c5)CC4)C3)C(c3ccccc3C(C)C)C2)ccc1OC` (stereo partly drawn) [Example 124, 2-((1H-pyrrolo[2,3-b]pyridin-5-yl)oxy)-4-(2-(4-(3-ethoxy-4-methoxybenzyl)-2-(2-isopropylphenyl)piperazin-1-yl)-7-azaspiro[3.5]nonan-7-yl)-N-((4-((((1r,4r)-4-hydroxy-4-methylcyclohexyl)methyl)amino)-3-nitrophenyl)sulfonyl)benzamide], the IC50 in assay [1] was determined as 0.24 nM; in assay [2] (setting [7]), 0.15 nM; in assay [2] (setting [8]) it was 0.15 nM; in assay [3], 1.2 nM; in assay [5], 0.51 nM. Also, in assay [4], the pIC50 was 9.68. In assay [4], the “Ratio of Bcl-2 D103Y/Bcl-2 WT” value is 1.4. Besides, the “Ratio of Bcl-2 G101V/WT” value in assay [6] worked out at 3.4.
Take `COc1ccc(CN2CCN(C3CC4(CCN(c5ccc(C(=O)NS(=O)(=O)c6ccc(NC[C@H]7CC[C@](C)(O)CC7)c([N+](=O)[O-])c6)c(Oc6cc7c(F)c[nH]c7nc6C)c5)CC4)C3)[C@H](c3ccccc3C(C)C)C2)cc1` [Example 125, 2-((3-fluoro-6-methyl-1H-pyrrolo [2,3-b]pyridin-5-yl)oxy)-N-((4-((((1r,4r)-4-hydroxy-4-methylcyclohexyl)methyl)amino)-3-nitrophenyl)sulfonyl)-4-(2-((R)-2-(2-isopropylphenyl)-4-(4-methoxybenzyl)piperazin-1-yl)-7-azaspiro[3.5]nonan-7-yl) benzamide]: the IC50 amounted to 0.15 nM in assay [1]; 0.3 nM in assay [2] (setting [7]); 0.3 nM in assay [2] (setting [8]); 0.68 nM in assay [3]; 0.71 nM in assay [5]. Besides, in assay [4], the pIC50 was 9.48. Also, the “Ratio of Bcl-2 D103Y/Bcl-2 WT” value in assay [4] is recorded as 1.1. In assay [6], the “Ratio of Bcl-2 G101V/WT” value is listed as 2.4.
In the case of `CC(C)c1ccccc1C1CN(Cc2ccccn2)CCN1C1CC2(CCN(c3ccc(C(=O)NS(=O)(=O)c4ccc(NC[C@H]5CC[C@](C)(O)CC5)c([N+](=O)[O-])c4)c(Oc4cnc5[nH]ccc5c4)c3)CC2)C1` (stereo partly drawn) [Example 131], the IC50 in assay [1] worked out at 0.57 nM; in assay [2] (setting [7]), 0.05 nM; in assay [2] (setting [8]), 0.05 nM; in assay [3], 4.34 nM; in assay [5], 0.51 nM. Moreover, in assay [4], the pIC50 is 9.54. For the same compound, the “Ratio of Bcl-2 D103Y/Bcl-2 WT” value in assay [4] is 5.7. In addition, the “Ratio of Bcl-2 G101V/WT” value in assay [6] was found to be 10.
